Consider 2 compounds from patent US20080171773A1, “FACTOR Xa INHIBITOR” (Pfizer Inc, priority 2006, published 2008).

Molecules are shown by their SMILES.

For this experiment, the target named is T1, human factor Xa (Homo sapiens, UniProt P00742).
T1 construct: factor Xa, a serine protease that occupies a pivotal position in the coagulation cascade
The experiment can be described thus: Factor Xa inhibitory activity: inhibition of human factor Xa cleavage of substrate S-2765. Particulars: 30 pM human factor Xa, substrate S-2765 at its Km, pH 7.4, 37° C.; mean of replicates (SD, SEM and n in separate columns). Type of experiment: biochemical. The method, then:
The ability of compounds to act as inhibitors of human factor Xa catalytic activity can be assessed by determination of the concentration of test substance that inhibits by 50% (IC50) the ability of human factor Xa to cleave the chromogenic substrate S2765 (N-CBz-D-Arg-L-Gly-L-Arg-p-nitroanilide. 2HCl).
The assay was performed in triplicate using a final concentration of 30 pM of human factor Xa (diluted in buffer containing 10 mM HEPES, 150 mM NaCl, 0.1% bovine serum albumin (BSA), pH 7.4). The substrate, S-2765 (N-CBz-D-Arg-L-Gly-L-Arg-p-nitroanilide, 2HCl), was run at a final concentration equal to its Km value. The (R) enantiomer was serially diluted in 100% DMSO (final assay concentration=2% DMSO) to final concentrations of 1.0 μM to […]. Dilutions were transferred to a black polystyrene 96-plate microtiter assay plate at a volume of 2.5 μL/well. […] The reactions were initiated by the addition of 50 μL of pre-warmed substrate and immediately placed in the microplate reader pre-warmed at 37° C.
A fluorometric plate reader was used to continuously monitor the rate of change in relative fluorescence units (RFUS) per unit time. The assay plate was mixed once before reading. The fluorogenic emission was read every 44 seconds for 30 minutes (excitation/emission of λex=390 nm and λex=460 nm; automatic cutoff=455 nm) at 37° C.

T1 sequence (P00742 235-488 limits assumed): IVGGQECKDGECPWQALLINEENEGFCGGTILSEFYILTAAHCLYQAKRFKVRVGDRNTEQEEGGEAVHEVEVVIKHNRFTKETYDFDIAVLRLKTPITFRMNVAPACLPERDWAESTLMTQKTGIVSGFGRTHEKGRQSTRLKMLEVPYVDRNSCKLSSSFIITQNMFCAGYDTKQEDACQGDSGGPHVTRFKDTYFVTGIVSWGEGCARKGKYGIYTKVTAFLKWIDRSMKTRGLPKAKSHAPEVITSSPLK
T1 sequence (P00742 41-179 partner limits assumed): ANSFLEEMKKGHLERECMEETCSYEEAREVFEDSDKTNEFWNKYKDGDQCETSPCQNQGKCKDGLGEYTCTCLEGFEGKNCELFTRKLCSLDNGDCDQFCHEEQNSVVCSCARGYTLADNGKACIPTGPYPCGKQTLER

In turn, `C[C@]1(C(=O)Nc2ccc(-n3ccccc3=O)cc2F)CC=NN1C(=O)Nc1ccc(Cl)cc1` [(R) enantiomer, (R)-5-Methyl-4,5-dihydro-pyrazole-1,5-dicarboxylic acid 1-[(4-chloro-phenyl)-amide] 5-{[2-fluoro-4-(2-oxo-2H-pyridin-1-yl)-phenyl]-amide}] returned a 50% inhibitory concentration (IC50) of 0.982 nM. With `C[C@@]1(C(=O)Nc2ccc(-n3ccccc3=O)cc2F)CC=NN1C(=O)Nc1ccc(Cl)cc1` [(S) enantiomer, (S)-5-Methyl-4,5-dihydro-pyrazole-1,5-dicarboxylic acid 1-[(4-chloro-phenyl)-amide] 5-{[2-fluoro-4-(2-oxo-2H-pyridin-1-yl)-phenyl]-amide}], 141 nM corresponded to half-maximal inhibition (IC50).

As usually defined, the IC50 is the concentration that gives 50% inhibition. Higher therefore signals weaker potency.
